Laboratory results: patent publication US5288709A, “Erythromycin derivatives” (priority 1991, dated 1994)
In brackets after ≈: the same amount, converted by molar mass. Like-named read-outs stand apart in the source and are kept apart here.

Key:
Assay in all cases: In-vitro antimicrobial activity primary screen (agar dilution MIC)
Assay type in all cases: cell-based
[1] = system: Staphylococcus aureus CMX 503A; conditions: Staphylococcus aureus, CMX503A, 24 h, BHI agar, 20-24 h, read-out: MIC
Experimental: (§1) The antimicrobial spectra of several of the compounds of the present invention were tested as described below.
(§2) Twelve petri dishes containing successive aqueous dilutions of the test compounds, mixed with 10 mL of sterilized Brain Heart Infusion (BHI) agar (Difco 0418-01-5), were prepared. Each plate was inoculated with 1:100 (or 1:10 for slow growing strains (primarily Micrococcus and Streptococcus) dilutions of up to 32 different microorganisms, using a Steers replicator block. The inoculated plates were incubated at 35 37° C. for 20-24 hours. In addition, a control plate, using BHI agar containing no test compound, was prepared and incubated at the beginning and the end of each test.
(§3) An additional plate containing a compound having known susceptibility patterns for the organisms being tested and belonging to the same antibiotic class as the test compounds was also prepared and incubated as a further control, as well as to provide test-to test comparability. Erythromycin A was used for this purpose.
(§4) After incubation, each plate was read. The MIC (minimum inhibitory concentration) is defined as the lowest concentration of test compound yielding no growth, a slight haze, or sparsely isolated colonies on the inoculum spot as compared to the growth control containing no test compound.

[2] = system: Staphylococcus aureus CMX 553; conditions: Staphylococcus aureus, CMX553, 24 h, BHI agar, 20-24 h, read-out: MIC
Experimental: as §1, §2, §3, §4

[3] = system: Staphylococcus aureus CMX 686B; conditions: CMX686B, BHI agar, 20-24 h, read-out: MIC
Experimental: as §1, §2, §3, §4

[4] = system: Micrococcus luteus ATCC 9341; conditions: Micrococcus luteus, ATCC9341, 24 h, BHI agar, 20-24 h
Experimental: as §1, §2
(§5) An additional plate containing a compound having known susceptibility patterns for the organisms being tested and belonging to the same antibiotic class as the test compounds was also prepared and incubated as a further control, as well as to provide test-to test comparability.
as §4

[5] = system: Enterococcus faecium ATCC 8043; conditions: Enterococcus faecium, ATCC8043, 24 h
Experimental: as §1, §2, §5, §4

[6] = system: Pseudomonas aeruginosa K799/61; conditions: Pseudomonas aeruginosa, K799/61, 24 h
Experimental: as §1, §2, §5, §4

Escherichia coli SS = conditions: BHI agar, 20-24 h
Experimental: as §1, §2, §5, §4

[7] = system: Pseudomonas aeruginosa BMH10; conditions: Pseudomonas aeruginosa, BMH10, 24 h, BHI agar, 20-24 h
Experimental: as §1, §2, §5, §4

[8] = system: Micrococcus luteus ATCC 4698; conditions: Micrococcus luteus, ATCC4698, 24 h, BHI agar, 20-24 h
Experimental: as §1, §2, §5, §4

[9] = system: Staphylococcus aureus A5177; conditions: Staphylococcus aureus, A5177, 24 h, Staphylococcus aureus A5177; BHI agar, 20-24 h
Experimental: as §1, §2, §5, §4

[10] = system: Pseudomonas aeruginosa A5007; conditions: Pseudomonas aeruginosa, A5007, 24 h
Experimental: as §1, §2, §5, §4

[11] = system: Enterobacter aerogenes ATCC 13048; conditions: Klebsiella aerogenes
Experimental: as §1, §2, §5, §4

[12] = system: Streptococcus agalactiae CMX 508; conditions: Streptococcus agalactiae, CMX508, 24 h, BHI agar, 20-24 h
Experimental: as §1, §2, §5, §4

Escherichia coli JUHL = system: Escherichia coli JUHL
Experimental: as §1, §2, §5, §4

[13] = system: Pseudomonas aeruginosa K799/WT; conditions: Pseudomonas aeruginosa, K799/WT, 24 h
Experimental: as §1, §2, §5, §4

Escherichia coli H560 = conditions: Escherichia coli, H560, 24 h
Experimental: as §1, §2, §5, §4

Pseudomonas cepacia 2961 = conditions: BHI agar, 20-24 h
Experimental: as §1, §2, §5, §4

[14] = system: Streptococcus pyrogenes EES61; conditions: BHI agar, 20-24 h, read-out: MIC
Experimental: as §1, §2, §5, §4

[15] = system: Staphylococcus aureus 45 RAR2; conditions: Staphylococcus aureus, 45RAR2, 24 h, BHI agar, 20-24 h
Experimental: as §1, §2, §5, §4

[16] = system: Streptococcus pyrogenes 2548 INDUC; conditions: BHI agar, 20-24 h
Experimental: as §1, §2, §5, §4

Escherichia coli DC-2 = system: Escherichia coli DC-2
Experimental: as §1, §2, §5, §4

[17] = system: Staphylococcus epidermidis 3519; conditions: BHI agar, 20-24 h
Experimental: as §1, §2, §5, §4

Acinetobacter SP CMX 669 = conditions: Acinetobacter, SPCMX669, 24 h
Experimental: as §1, §2, §5, §4

Staphylococcus aureus 45 = conditions: BHI agar, 20-24 h, read-out: MIC
Experimental: as §1, §2, §5, §4

[18] = system: Staphylococcus aureus ATCC 6538P; conditions: Staphylococcus aureus, ATCC6538P, 24 h, BHI agar, 20-24 h
Experimental: as §1, §2, §5, §4

[19] = system: Providencia stuartii CMX 640
Experimental: as §1, §2, §5, §4

[20] = system: Klebsiella pneumoniae ATCC 8045
Experimental: as §1, §2, §5, §4

[21] = system: Streptococcus bovis A5169; conditions: Streptococcus equinus, BHI agar, 20-24 h
Experimental: as §1, §2, §5, §4

Row | SMILES | MIC [1] | MIC [2] | MIC [3] | MIC [4] | MIC [5] | MIC [7] | MIC [8] | MIC [9] | MIC [10] | MIC [12] | MIC [13] | MIC [14] | MIC [15] | MIC (Acinetobacter SP CMX 669) | MIC (Staphylococcus aureus 45) | MIC [18] | further results
1 | CC[C@H]1OC(=O)[C@H](C)[C@@H](O[C@H]2C[C@@](C)(OC)[C@H](N=CN(C)C)[C@H](C)O2)[C@H](C)[C@@H](O[C@@H]2O[C@H](C)C[C@H](N(C)C)[C@H]2O)[C@](C)(O)C[C@@H](C)[C@@H]2O[C@@]1(C)C(=O)[C@H]2C [Example 9, (4"R,9S)-9-Deoxo-4",11,12-trideoxy-9,12-epoxy-4"-[[(dimethyamino)methylene]amino]-11-oxoerythromycin A] | 0.39 µg/mL (≈ 0.506 µM) | 0.39 µg/mL (≈ 0.506 µM) | 0.39 µg/mL (≈ 0.506 µM) | 0.02 µg/mL (≈ 0.026 µM) | 0.1 µg/mL (≈ 0.13 µM) | > 100 µg/mL | 0.2 µg/mL (≈ 0.26 µM) | 0.78 µg/mL (≈ 1.01 µM) | > 100 µg/mL | 0.01 µg/mL (≈ 0.013 µM) | 100 µg/mL (≈ 130 µM) | < 0.005 µg/mL | 0.78 µg/mL (≈ 1.01 µM) | 50 µg/mL (≈ 64.9 µM) | 0.39 µg/mL (≈ 0.506 µM) | 0.39 µg/mL (≈ 0.506 µM) | MIC ([6]; Pseudomonas aeruginosa K799/61, BHI agar, 20-24 h): 3.1 µg/mL (≈ 4.03 µM); MIC (Escherichia coli SS; read-out: MIC): 0.78 µg/mL (≈ 1.01 µM); MIC ([11]; ATCC13048, 24 h): > 100 µg/mL; MIC (Escherichia coli JUHL; Escherichia coli, 24 h): > 100 µg/mL; MIC (Escherichia coli H560; Escherichia coli H560, BHI agar, 20-24 h): 50 µg/mL (≈ 64.9 µM); MIC (Pseudomonas cepacia 2961; Burkholderia cepacia, 2961, 24 h): > 100 µg/mL; MIC ([16]; read-out: MIC): 6.2 µg/mL (≈ 8.05 µM); MIC (Escherichia coli DC-2; Escherichia coli, DC2, 24 h): > 100 µg/mL; MIC ([17]; Staphylococcus epidermidis, 3519, 24 h): 0.39 µg/mL (≈ 0.506 µM); MIC ([19]; Providencia stuartii, CMX640, 24 h): > 100 µg/mL; MIC ([20]; Klebsiella pneumoniae, ATCC8045, 24 h): > 100 µg/mL; MIC ([21]; read-out: MIC): < 0.005 µg/mL
2 | CC[C@H]1OC(=O)[C@H](C)[C@@H](O[C@H]2C[C@@](C)(OC)[C@H](N)[C@H](C)O2)[C@H](C)[C@@H](O[C@@H]2O[C@H](C)C[C@H](N(C)C)[C@H]2O)[C@](C)(O)C[C@@H](C)[C@@H]2O[C@@]1(C)C(=O)[C@H]2C [Example 8, (4"R,9S)-4"-Amino-9-deoxo-4",11,12-trideoxy-9,12-epoxy 11-oxoerythromycin A] | 0.2 µg/mL (≈ 0.28 µM) | 0.1 µg/mL (≈ 0.14 µM) | 0.2 µg/mL (≈ 0.28 µM) | 0.02 µg/mL (≈ 0.028 µM) | 0.05 µg/mL (≈ 0.0699 µM) | 100 µg/mL (≈ 140 µM) | 0.05 µg/mL (≈ 0.0699 µM) | 0.39 µg/mL (≈ 0.546 µM) | > 100 µg/mL | 0.02 µg/mL (≈ 0.028 µM) | > 100 µg/mL | 0.01 µg/mL (≈ 0.014 µM) | 0.2 µg/mL (≈ 0.28 µM) | 6.2 µg/mL (≈ 8.67 µM) | 0.2 µg/mL (≈ 0.28 µM) | 0.2 µg/mL (≈ 0.28 µM) | MIC [6]: 0.78 µg/mL (≈ 1.09 µM); MIC (Escherichia coli SS; Escherichia coli, 24 h): 0.2 µg/mL (≈ 0.28 µM); MIC ([11]; ATCC13048, Enterobacter aerogenes ATCC 13048, BHI agar, 20-24 h, read-out: MIC): > 100 µg/mL; MIC (Escherichia coli JUHL; Escherichia coli JUHL, BHI agar, 20-24 h, read-out: MIC): 100 µg/mL (≈ 140 µM); MIC (Escherichia coli H560): 25 µg/mL (≈ 35 µM); MIC (Pseudomonas cepacia 2961; Burkholderia cepacia, read-out: MIC): > 100 µg/mL; MIC ([16]; Streptococcus, 2548INDUC, 24 h): 0.39 µg/mL (≈ 0.546 µM); MIC (Escherichia coli DC-2; DC2, Escherichia coli DC-2, BHI agar, 20-24 h, read-out: MIC): 100 µg/mL (≈ 140 µM); MIC ([17]; read-out: MIC): 0.2 µg/mL (≈ 0.28 µM); MIC ([19]; CMX640, Providencia stuartii CMX 640, BHI agar, 20-24 h, read-out: MIC): > 100 µg/mL; MIC ([20]; ATCC8045, Klebsiella pneumoniae ATCC 8045, BHI agar, 20-24 h, read-out: MIC): 100 µg/mL (≈ 140 µM); MIC ([21]; A5169, 24 h): 0.05 µg/mL (≈ 0.0699 µM)
